Read-outs that look alike come from different tables or passages of the source.
Columns and labels:
PPARγ = target: T1, PPARγ (Homo sapiens, UniProt P37231); experiment: PPARγ agonist activity test (luciferase reporter gene); format: cell-based; details: for PPARγ (compared with Rosiglitazone, %): relative to Rosiglitazone
T1 sequence (P37231 204-505): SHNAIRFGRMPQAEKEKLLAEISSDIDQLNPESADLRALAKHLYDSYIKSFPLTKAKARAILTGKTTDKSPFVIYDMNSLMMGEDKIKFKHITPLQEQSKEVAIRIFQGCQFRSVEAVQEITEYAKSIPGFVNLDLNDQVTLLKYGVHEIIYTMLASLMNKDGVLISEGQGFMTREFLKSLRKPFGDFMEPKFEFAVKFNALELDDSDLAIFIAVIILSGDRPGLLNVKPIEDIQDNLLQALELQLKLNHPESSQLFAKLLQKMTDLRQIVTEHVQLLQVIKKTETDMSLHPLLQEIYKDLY
Source text: • 1. PPARγ agonist activity test Detection principle: when pM-hPPAR binds to the appropriate ligand, and is activated and binds to the GAL4DNA binding site in the plasmid pB4-RES-tk-luc, thereby initiating the expression of the downstream luciferase reporter gene. The amount of luciferase is detected to determine whether the compound to be tested is a PPAR agonist. • 2.

murine sEH (MsEH) [1] = target: T2, murine sEH (MsEH) (Mus musculus, UniProt P34914); experiment: biochemical
T2 sequence (P34914 1-554): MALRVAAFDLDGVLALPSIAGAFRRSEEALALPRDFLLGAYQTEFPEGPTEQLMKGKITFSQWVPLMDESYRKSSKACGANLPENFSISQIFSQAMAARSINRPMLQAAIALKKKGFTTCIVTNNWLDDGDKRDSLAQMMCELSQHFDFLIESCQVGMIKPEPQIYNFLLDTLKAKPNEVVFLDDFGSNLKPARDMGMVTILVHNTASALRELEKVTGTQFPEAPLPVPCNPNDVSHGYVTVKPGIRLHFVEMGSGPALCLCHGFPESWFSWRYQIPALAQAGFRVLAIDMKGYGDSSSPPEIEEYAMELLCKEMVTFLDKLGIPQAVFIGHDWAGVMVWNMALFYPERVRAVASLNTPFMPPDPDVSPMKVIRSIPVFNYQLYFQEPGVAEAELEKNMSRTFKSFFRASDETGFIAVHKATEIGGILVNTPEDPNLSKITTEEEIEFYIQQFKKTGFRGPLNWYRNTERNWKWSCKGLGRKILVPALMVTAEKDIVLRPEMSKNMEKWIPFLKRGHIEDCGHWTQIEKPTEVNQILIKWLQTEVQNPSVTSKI
Experimental: (§1) Detection principle: a specific substrate, (3-phenyl-oxy)-acetic acid cyano-(6-methoxy-naphthalen-2-yl) methyl ester, namely PHOME, is non-fluorescent but can be hydrolyzed under the action of sEH enzyme to generate a product 6-methoxy-2-naphthaldehyde. […] Based on the above principle, the inhibition rates of samples with different concentrations were calculated compared with the positive control group. The IC50 value of the compound was calculated based on the inhibition rate and concentration using SPSS 20 software.
(§2) PHOME solution: 0.79 mg PHOME was dissolved in 106 µL DMSO to obtain a 20 mM PHOME solution, which was diluted to 1/3 mM with Tris-HCl buffer when used.
(§3) sEH solution: sEH (5 mg/mL) stock solution was stored in a -80°C refrigerator and diluted to 4 µg/mL with 25 mM Tris-HCl buffer when used.
(§4) A sample powder to be tested was dissolved in DMSO to a 20 mM solution, stored in a - 20°C refrigerator for later use, and diluted with Tris-HCl buffer to the corresponding concentration when used.
(§5) Experimental design: solvent group, 100% activity group (A), inhibitor group (B), positive control group (C), as shown in Table 1.
(§6) Three replicate wells were set for each sample, and the average of the three replicate wells was the fluorescence value (F) of the compound to be tested. […] The IC50 value of the compound was calculated based on the inhibition rate and concentration using SPSS 20 software.
(§7) The activity of the compounds was evaluated using a biochemical method with [cyano-(6-methoxynaphthalen-2-yl)methyl] 2-(3-phenyloxiran-2-yl)acetate (PHOME) as a substrate using recombinant human sEH (HsEH) and murine sEH (MsEH).

[2] = target: T3, recombinant human sEH (HsEH) (Homo sapiens, UniProt P34913)
T3 sequence (P34913 1-555): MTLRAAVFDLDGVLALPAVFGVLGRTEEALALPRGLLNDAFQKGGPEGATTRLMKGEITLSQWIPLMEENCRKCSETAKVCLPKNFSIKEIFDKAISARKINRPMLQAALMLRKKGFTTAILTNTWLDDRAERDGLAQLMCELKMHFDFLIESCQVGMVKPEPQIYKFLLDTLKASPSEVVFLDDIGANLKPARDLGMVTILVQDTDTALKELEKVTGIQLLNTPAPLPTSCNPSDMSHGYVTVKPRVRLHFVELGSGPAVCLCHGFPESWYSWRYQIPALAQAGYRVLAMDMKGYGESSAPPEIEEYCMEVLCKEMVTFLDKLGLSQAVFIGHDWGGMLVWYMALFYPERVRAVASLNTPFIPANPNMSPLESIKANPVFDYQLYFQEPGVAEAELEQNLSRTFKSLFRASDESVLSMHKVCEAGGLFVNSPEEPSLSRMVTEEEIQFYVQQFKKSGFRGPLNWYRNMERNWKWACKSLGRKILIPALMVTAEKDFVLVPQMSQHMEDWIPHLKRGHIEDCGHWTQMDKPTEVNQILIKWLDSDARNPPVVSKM
Experimental: as §1, §2, §3, §4, §5, §6, §7

murine sEH (MsEH) [3] = target: T2, murine sEH (MsEH); details: read-out: MsEH IC50, PHOME substrate
Experimental: as §1, §2, §3, §4, §5, §6, §7

[4] = Pharmacokinetics after intravenous and oral administration; details: rats, i.v. 10 mg/kg
Experimental: Blood levels were measured within 8 hours after oral administration. […] Table 7 PK of SP-B07 after intravenous and oral administration in rats (n=3)

LPS-induced sepsis model = experiment: LPS-induced sepsis model; format: in vivo, Male C57BL/6 mice; details: LPS 25 mg/kg i.p., administration 4 h after modeling, twice at 8 h interval, n=7
Experimental: The drug was administered twice, with an interval of 8 h between administrations.

[5] = read-out: HsEH IC50, recombinant human sEH, PHOME substrate

SMILES | PPARγ (compared with Rosiglitazone, %) (PPARγ) [%] | IC50 (murine sEH (MsEH) [1]) [nM] | IC50 [2] [nM] | IC50 (murine sEH (MsEH) [3]) [nM] | IC50 [2, 5] [nM] | further results
CC12CC3CC(C)(C1)CC(NC(=O)N[C@H]1CC[C@H](Oc4ccc(CC5SC(=O)NC5=O)cc4)CC1)(C3)C2 (stereo partly drawn) [SP-A01] | 34.5 | 0.54 | 0.55 | – | – | EC50 (PPARγ): 6770 nM
CC12CC3CC(C)(C1)CC(NC(=O)N1CCC(Oc4ccc(CC5SC(=O)NC5=O)cc4)CC1)(C3)C2 (stereo not drawn) [SP-A02] | 25.2 | 8.3 | 83.5 | – | – | –
O=C1NC(=O)C(Cc2ccc(OC3CCN(C(=O)Nc4ccc(OC(F)(F)F)cc4)CC3)cc2)S1 (stereo not drawn) [SP-A05] | 14.3 | – | – | 0.43 | 0.53 | –
O=C1NC(=O)C(Cc2ccc(OC3CCN(C(=O)Nc4ccc(OC(F)(F)F)c(F)c4)CC3)cc2)S1 (stereo not drawn) [SP-A06] | 28.4 | – | – | 0.73 | 1.3 | –
O=C(Nc1ccc(OC(F)(F)F)c(F)c1)N[C@H]1CC[C@H](Oc2ccc(CC3SC(=O)NC3=O)cc2)CC1 (stereo partly drawn) [SP-A07] | 21.1 | 0.67 | 0.07 | – | – | EC50 (PPARγ): 7750 nM
CC12CC3CC(C)(C1)CC(NC(=O)N1CCC(Oc4ccc(/C=C5\SC(=O)NC5=O)cc4)CC1)(C3)C2 [SP-B02] | 14.6 | 23.4 | 19.9 | – | – | –
CC12CC3CC(C)(C1)CC(NC(=O)N1CCC(Oc4ccc(/C=C5\NC(=O)NC5=O)cc4)CC1)(C3)C2 [SP-B03, N-[(1r,3R,5S,7r)-3,5-dimethyladamantan-1-yl]-4-{4-[(Z)-(2,5-dioxyimidazolin-4-ylidene)methyl]phenoxy}piperidin-1-carboxamide] | 10.2 | 135 | 121 | – | – | –
O=C1NC(=O)/C(=C/c2ccc(OC3CCN(C(=O)Nc4ccc(OC(F)(F)F)cc4)CC3)cc2)N1 [SP-B04] | 9.6 | 108 | 156 | – | – | –
O=C1NC(=O)/C(=C/c2ccc(OC3CCN(C(=O)Nc4ccc(OC(F)(F)F)cc4)CC3)cc2)S1 [SP-B05, (Z)-4-{4-[(2,4-dioxothiazolidin-5-ylidene)methyl]phenoxy}-N-[4-(trifluoromethoxy)phenyl]piperidin-1-carboxamide] | 17.3 | – | – | – | – | –
O=C(Nc1ccc(OC(F)(F)F)c(F)c1)N[C@H]1CC[C@H](Oc2ccc(/C=C3\SC(=O)NC3=O)cc2)CC1 [SP-B06] | 19.3 | 1.1 | 0.69 | – | – | –
CC(=O)Oc1ccc(O[C@H]2CC[C@H](NC(=O)Nc3ccc(OC(F)(F)F)c(F)c3)CC2)cc1 [SP-C01, phenyl 4-(((1r,4r)-4-(3-(3-fluoro-4-(trifluoromethoxy)phenyl)ureido)cyclohexyl)oxy)acetate] | – | – | – | – | – | time at which maximum concentration was reached after intravenous injection [4]: 2 min
NC(=O)c1ccc(O[C@H]2CC[C@H](NC(=O)Nc3ccc(OC(F)(F)F)cc3)CC2)cc1 [SP-C01i] | 12.97 | 0.7 | 0.3 | – | – | –
CC(=O)Nc1ccc(O[C@H]2CC[C@H](NC(=O)Nc3ccc(OC(F)(F)F)c(F)c3)CC2)cc1 [SP-C01k, N-(4-(((1r,4r)-4-(3-(3-fluoro-4-(trifluoromethoxy)phenyl)ureido)cyclohexyl)oxy)phenyl)acetamide] | 0.3 | – | – | – | – | –
CCC(=O)Nc1ccc(OC2CCCC(NC(=O)NC34CC5CC(C)(CC(C)(C5)C3)C4)C2)cc1 (stereo not drawn) [SP-C01m] | 0.9 | – | – | 6.7 | 0.9 | –
CCC(C)C(=O)Nc1ccc(OC2CCCC(NC(=O)NC34CC5CC(C)(CC(C)(C5)C3)C4)C2)cc1 (stereo not drawn) [SP-C01n] | 0.7 | – | – | 1.3 | 0.7 | –
CCOC(=O)CC(=O)Nc1ccc(O[C@H]2CC[C@H](NC(=O)Nc3ccc(OC(F)(F)F)c(F)c3)CC2)cc1 [SP-C01s] | 0.3 | 0.6 | 0.3 | – | – | –
COC(=O)CN1C(=O)S/C(=C\c2ccc(O[C@H]3CC[C@H](NC(=O)Nc4ccc(OC(F)(F)F)cc4)CC3)cc2)C1=O [SP-D01, methyl 2-(2,4-dioxo-5-((Z)-4-(((1r,4r)-4-(3-(4-(trifluoromethoxy)phenyl)ureido)cyclohexyl)oxy)benzylidene)thiazolidin-3-yl)acetate] | 1.1 | – | – | 2.4 | 1.1 | –
COC(=O)CN1C(=O)S/C(=C\c2ccc(O[C@H]3CC[C@H](NC(=O)NC45CC6C[C@@](C)(C4)C[C@](C)(C6)C5)CC3)cc2)C1=O [SP-D04, methyl 2-(5-((Z)-4-(((1R,4r)-4-(3-((1R,3R,5S,7R)-3,5-dimethyladamantan-1-yl)ureido)cyclohexyl)oxy)benzylidene)-2,4-dioxythiazolin-3-yl)acetate] | 1.2 | – | – | 10.1 | 1.2 | –
C[C@@H]1C[C@H]2[C@@H]3CCC4=CC(=O)C=C[C@]4(C)[C@@]3(F)[C@@H](O)C[C@]2(C)[C@@]1(O)C(=O)CO [dexamethasone, reference compound] | – | – | – | – | – | increase of the survival rate (LPS-induced sepsis model): 57.1%

Reference: patent publication EP4563573A1, “COMPOUND, AND PREPARATION METHOD THEREFOR AND USE THEREOF IN PREPARATION OF SEH INHIBITOR AND PPARS AGONIST” (Shenyang Pharmaceutical University, priority 2023, dated 2024)
